The results in this text go back to PMC8456950, “Structure‐Guided Design of G‐Protein‐Coupled Receptor Polypharmacology” (Angewandte Chemie (International Ed. in English), 2021).

In one assay the target is T1, Human A1AR (Homo sapiens, UniProt P30542).
T1 construct: expressed in transfected cells; host or cells: CHO-A1AR cell line (membranes)
T1 sequence (P30542 1-326): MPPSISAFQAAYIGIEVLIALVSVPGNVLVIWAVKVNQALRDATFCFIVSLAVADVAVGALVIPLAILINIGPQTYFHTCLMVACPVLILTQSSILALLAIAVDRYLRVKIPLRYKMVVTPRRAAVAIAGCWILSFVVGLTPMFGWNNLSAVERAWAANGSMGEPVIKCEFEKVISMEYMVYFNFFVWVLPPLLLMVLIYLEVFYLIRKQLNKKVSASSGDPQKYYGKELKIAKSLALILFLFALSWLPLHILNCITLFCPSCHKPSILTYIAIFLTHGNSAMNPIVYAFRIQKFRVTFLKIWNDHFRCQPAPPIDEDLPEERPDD
Nature of the assay: A1AR competition binding ([3H]-DPCPX). Particulars: for A1AR % displacement at 10 µM: 10 µM compound, n=2. The protocol:
Human A1AR competition binding experiments were carried out in multiscreen GF/C 96 -well plates (Millipore, Madrid, Spain) pretreated with assay buffer ( 20 mM Hepes, 100 mM NaCl, 10 mM MgCl2, 2 U/ml adeno sine deamina se, pH=7.4). Each well contained 5 µg of membranes from a CHO-A1AR cell line, 1 nM [3H]-DPCPX (137 Ci/mmol, 1 mCi/Ml, Perkin Elmer NET974001MC), and the compound studied. Non-specific binding was determined in the presence of R-PIA 10 µM (Sigma P4532). The reaction mixture (200 µl/well) was incubated at 25°C for 60 min. The samples were then filtered and washed four times with 250 µl wash buffer (20 mM Hepes, 100 mM NaCl, 10 mM MgCl2, pH=7.4) before measuring in a microplate beta scintillati on counter (Microbeta Trilux, PerkinElmer, Madrid, Spain). Two independent experiments were carried out to calculate K i values (n=2). […]

Another assay concerns the target T2, H1R (Homo sapiens, UniProt P35367).
T2 construct: expressed in transfected cells; host or cells: CHO-H1R cell line (membranes)
Nature of the assay: H1R competition binding ([3H]pyrilamine). Particulars: for H1R % displacement at 10 µM: 10 µM compound, n=2. As for the experimental part: H1R competition binding experiments were carried out in polypropylene 96-well plates. Each well contained 50 µg of membranes from a CHO-H1R cell line (protein concentration=3860 µg/ml), 4 nM [3H]pyrilamine (20. 1 Ci/mmol, 1 mCi/ml, Perkin Elmer NET594250UC ), and the compound studied. Non-specific binding was determined in the presence of 10 µM triprolidine (T6764, Sigma Aldrich). The reaction mixture (250 µl/well) was incubated at 27 °C for 60 min, after which 200 µL was transferred to GF/B 96 -well plates (Millipore, Madrid, Spain) pretreated with 0. 1% Tween 20 and assay b uffer (Na+ / K+ phosphate buffer pH=7. 4).
The samples were then filtered and washed fou r times with 250 µl wash buffer (Na+/K+ phosphate buffer, pH=7.4), after which 30 µL Universol (MP Biomedicals, Spain) was added […]
and measurements were performed in a microplate beta scintillation counter (Microbeta Trilux, PerkinElmer, Madrid, Spain). Two independent experiments were carried out to calculate Ki values (n=2).
Data were adjusted to non-linear fitting by using Prism V2.1 (GraphPad Inc, Chicago, USA) and Ki values were calculated by using the Cheng-Prusoff equation25. […]
(§1) KB=I C50/(1+([NECA]/EC50 NECA)). […]

The next assay addresses Human A2AAR (Homo sapiens, UniProt P29274). The assay can be described thus: A2AAR functional assay, inhibition of NECA-elicited cAMP production in CHO-A2A cells. The class given is cell-based. Details: expressed in transfected cells. Particulars: mean±SEM n=3. The protocol:
Functional assays. For the human A2AAR, functional experiments measuring cAMP production were carried out in CHO-A2A cell line. The day before the assay, the cells were seeded on a 96-well culture plate (Falcon 353072). The cells were washed with wash buffer (Dulbecco’s modified eagle’s medium nutrient mixture F-12 ham (Sigma D8062), 25 mM Hepes; pH=7.4). Wash buffer was then replaced by incubation buffer (Dulbecco’s modified eagle’s medium nutrient mixture F-12 ham (Sigma D8062), 25 mM Hepes, 20 µM Rolipram, pH=7.4). The studied compounds wer e added and incubated at 37 °C for 15 min. After incubation, NECA (Sigma E2387) was added in several concentrations and incubated at 37 °C for 15 min. After incubation, the amount of cAMP was determined using the cAMP Biotrak Enzymeimmunoassay (EIA) System Kit (GE Healthcare RPN225). Data were adjusted to non-linear fitting by using Prism V2.1 (GraphPad Inc, Chicago USA). K B values were calculated from the IC50 values obtained for each compound by using the formula:
as §1

A further assay concerns the target T3, Human D2R (Homo sapiens, UniProt P14416).
T3 construct: expressed in transfected cells; host or cells: CHO-D2R #S20 cell line (membranes)
The assay can be described thus: D2R functional cAMP (HTRF) assay in CHO-D2 #S20 cells. In kind it is cell-based. Particulars: for EC50: cAMP HTRF, CHO-D2 cells, forskolin 10 µM, mean±SEM n=3; for Emax: relative to the maximal effect of dopamine. As for the experimental part: KB=I C50/(1+([NECA]/EC50 NECA)).
Functional assays for the human D2R were carried out in a CHO-D2 #S20 cell line. 5,000 cells were seed ed in 30 µl of Opti-ME M (Invitrogen 11058) and 500µM IBMX (Sigma 17018) on a 96-well isoplate (PerkinElmer 6005030). The studied compounds wer e then added and incubated for 10 min at 37 °C with gentle stirring (150 rpm). Then, 10 µM […]
forskolin (Sigma 17018) was added and incubated for 5 min at 37 °C with gentle stirring (150 rpm). Reagents (#CISBIO 62AM4PEC) were added and, after incubation for 60 min at rt with gentle stirring (90 rpm) and protected from light, homogeneous time resolved fluorescence (HTRF, λEx: 320 nm; λEm: 620-665 nm) from each well was measured using a Tecan Infinite M1000 Pro. Data were normalized to the maximum effect of dopamine. EC50 and Ema x values were obtained after fitting the d ata to a four -parameter logistic equatio n using Prism V2. 1 (Graph Pad Inc, Chicago, USA) . […]

T3 sequence (P14416 whole entry): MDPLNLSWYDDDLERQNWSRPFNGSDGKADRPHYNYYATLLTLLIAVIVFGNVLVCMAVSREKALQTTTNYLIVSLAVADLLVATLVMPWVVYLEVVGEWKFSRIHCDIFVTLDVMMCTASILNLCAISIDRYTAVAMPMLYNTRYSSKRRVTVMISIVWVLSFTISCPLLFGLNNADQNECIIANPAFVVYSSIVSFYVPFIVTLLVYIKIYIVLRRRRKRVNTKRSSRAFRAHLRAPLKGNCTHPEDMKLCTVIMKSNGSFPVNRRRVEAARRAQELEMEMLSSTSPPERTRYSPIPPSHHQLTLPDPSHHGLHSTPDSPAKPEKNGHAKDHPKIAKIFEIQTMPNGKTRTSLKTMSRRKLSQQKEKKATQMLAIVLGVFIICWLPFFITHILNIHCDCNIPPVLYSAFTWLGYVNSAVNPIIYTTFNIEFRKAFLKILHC
Human A2AAR, sequence (P29274 whole entry): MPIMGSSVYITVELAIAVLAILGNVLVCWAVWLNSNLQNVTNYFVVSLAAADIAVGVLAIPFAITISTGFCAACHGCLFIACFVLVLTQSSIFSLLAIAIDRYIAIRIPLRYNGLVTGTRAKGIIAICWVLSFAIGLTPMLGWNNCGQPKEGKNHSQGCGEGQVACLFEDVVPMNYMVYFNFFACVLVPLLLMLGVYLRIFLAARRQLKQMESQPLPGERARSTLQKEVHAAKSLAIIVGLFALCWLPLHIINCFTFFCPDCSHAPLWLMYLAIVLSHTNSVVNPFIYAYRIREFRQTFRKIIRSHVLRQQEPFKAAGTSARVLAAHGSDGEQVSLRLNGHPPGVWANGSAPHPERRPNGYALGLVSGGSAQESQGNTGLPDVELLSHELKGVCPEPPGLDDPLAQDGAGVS
T2 sequence (P35367 whole entry, species assumed): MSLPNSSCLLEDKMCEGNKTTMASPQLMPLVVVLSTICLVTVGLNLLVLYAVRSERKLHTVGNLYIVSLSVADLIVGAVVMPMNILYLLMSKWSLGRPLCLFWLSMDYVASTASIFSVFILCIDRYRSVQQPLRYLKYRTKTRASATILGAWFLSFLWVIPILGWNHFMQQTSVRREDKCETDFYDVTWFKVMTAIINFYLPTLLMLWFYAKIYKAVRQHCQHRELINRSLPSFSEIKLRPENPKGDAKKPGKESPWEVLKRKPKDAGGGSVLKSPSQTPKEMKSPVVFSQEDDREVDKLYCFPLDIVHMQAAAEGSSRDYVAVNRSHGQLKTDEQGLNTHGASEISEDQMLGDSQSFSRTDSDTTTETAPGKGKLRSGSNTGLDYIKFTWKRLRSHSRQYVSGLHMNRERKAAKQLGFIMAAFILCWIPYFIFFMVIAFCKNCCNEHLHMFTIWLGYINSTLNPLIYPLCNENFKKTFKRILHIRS

As for `CCCN(CCCCC(=O)Nc1nc2c(OC)ccc(OC)c2s1)C1Cc2ccccc2C1` [Compound 30], the “A1AR % displacement at 10 µM” value on Human A1AR was 35 ± 1%. Further, at Human A1AR (mean±SEM of two experiments in duplicate, read-out: A1AR binding affinity Ki), the Ki was over 10 µM. At H1R, the “H1R % displacement at 10 µM” value stood at 40 ± 3%. The Ki at H1R (mean±SEM of two experiments in duplicate, read-out: H1R binding affinity Ki) was over 10 µM. Moreover, the Kb at Human A2AAR is 0.72 ± 0.25 µM. For the same molecule, at Human D2R, a half-maximal response (EC50) required 0.18 ± 0.04 µM and the Emax is 77 ± 5%.
Take `CCN(CCCCC(=O)Nc1nc2c(Br)cccc2s1)C1Cc2ccccc2C1` [Compound 22]: the “H1R % displacement at 10 µM” value at H1R is 12 ± 3%. Further, on Human D2R, the 50% effective concentration (EC50) came to 2.5 ± 0.9 µM and the Emax turned out to be 119 ± 6%.
In the case of `CCCN(CCCCC(=O)Nc1nc2c(OC)cccc2s1)C1Cc2ccccc2C1` [Compound 26], the “A1AR % displacement at 10 µM” value on Human A1AR amounted to 22 ± 1%. In addition, the Kb on Human A2AAR is 3.6 ± 2 µM. Also, on Human D2R, the midpoint of the response, the EC50, lay at 0.99 ± 0.38 µM and the maximal effect (Emax) came to 94 ± 3%.
Turning to `CCCN(CCCCC(=O)Nc1nc2c(Br)cccc2s1)C1Cc2ccccc2C1` [Compound 27], the “A1AR % displacement at 10 µM” value on Human A1AR is 37 ± 4%. For the same molecule, the “H1R % displacement at 10 µM” value at H1R worked out at 40 ± 1%. The molecule also had a Kb on Human A2AAR of 0.51 ± 0.24 µM. On Human D2R, this molecule gave an EC50 of 0.18 ± 0.03 µM and an Emax of 89 ± 4%.
